# Reference: US9828381B2, “Substituted pyrazolopyrimidines and method of use” (AbbVie Deutschland GmbH & Co. KG, priority 2015, dated 2017)
# Biological target: GABA-B receptor (Rattus norvegicus (Rat), UniProt O88871+Q9Z0U4)
# Experiment: [35S]GTPgS binding assay, rat cortical membranes, in presence of EC25 GABA
# Format: biochemical
# Conditions: rat brain cortex membranes; in presence of 1 μM GABA (EC25); positive allosteric modulation
# Description: Preparation of Rat Brain Membranes for Native Receptor Assays
# Membranes from rat brain cortex were prepared as described in detail by Olpe et al. and stored at concentrations of 1.66 mg/mL protein at −80° C. until required. (Olpe, H.-R, et al. Eur J Pharmacol 1990; 187: 27-38).
# [^35S] GTPgS Binding Assay
# The composition of the assay mixtures [in a final volume of 200 μL in 96-well U-bottom plates (Greiner) was as follows: 50 mM Tris-HCl buffer, pH 7.7, 10 mM MgCl2, 0.2 mM EGTA, 2 mM CaCl2, 100 mM NaCl, 20 µM guanosine 5′-diphosphate (Sigma), 0.3 nM [^35S]GTPgS (1250 Ci/mmol (PerkinElmer)), and the test compounds at increasing concentrations (from 10 nM up to […]), […] of rat cortical membranes, and a concentration of […], that has been observed in previous experiments to correspond to the EC25, a concentration that gives 25% of the maximal response of GABA. The samples were incubated at room temperature for 60 minutes on a shaker. The incubation was stopped by rapid vacuum filtration over glass-fiber filter plates (UniFilter-96 well, GF/B membrane plates, PerkinElmer) using a 96-well plate harvester (TOMTEK© Harvester). The UniFilter plate was washed five times with ice-cold wash buffer (50 mM Tris-HCl buffer, pH 7.7, 10 mM MgCl2, and 100 mM NaCl. After filtration the plate was dried for 90 minutes at 55° C. The plates were closed on the bottom with black sealing membranes, and liquid scintillation cocktail (35 μL, Betaplate Scint, PerkinElmer) was added to each well. After sealing the top of the plate, an additional incubation step of 90 minutes at room temperature followed before measuring the plate. The amount of membrane-bound [^35S]GTPgS was measured using a 96-well plate reader (Microbeta®, PerkinElmer). Nonspecific binding was measured in the presence of unlabeled 10 μM of GTPgS (Millipore) and without GABA. Basal binding was measured in the absence of 1 μM GABA, and maximal binding was measured in the presence of GABA using 1 mM GABA concentrations.
# Data analysis. The concentration-response curves of compounds of the present disclosure in the presence of EC25 of GABA-B receptor agonist were generated using the GraphPad Prism® program (GraphPad Software, San Diego, Calif.). Data was normalized using basal binding as 0% and maximal binding as 100%. The curves were fitted by nonlinear regression allowing determination of EC50 values from sigmoidal dose-response curves. Each curve was performed using triplicate sample per date point and 10 concentrations.
# GABA-B receptor, sequence (Q9Z0U4 17-960): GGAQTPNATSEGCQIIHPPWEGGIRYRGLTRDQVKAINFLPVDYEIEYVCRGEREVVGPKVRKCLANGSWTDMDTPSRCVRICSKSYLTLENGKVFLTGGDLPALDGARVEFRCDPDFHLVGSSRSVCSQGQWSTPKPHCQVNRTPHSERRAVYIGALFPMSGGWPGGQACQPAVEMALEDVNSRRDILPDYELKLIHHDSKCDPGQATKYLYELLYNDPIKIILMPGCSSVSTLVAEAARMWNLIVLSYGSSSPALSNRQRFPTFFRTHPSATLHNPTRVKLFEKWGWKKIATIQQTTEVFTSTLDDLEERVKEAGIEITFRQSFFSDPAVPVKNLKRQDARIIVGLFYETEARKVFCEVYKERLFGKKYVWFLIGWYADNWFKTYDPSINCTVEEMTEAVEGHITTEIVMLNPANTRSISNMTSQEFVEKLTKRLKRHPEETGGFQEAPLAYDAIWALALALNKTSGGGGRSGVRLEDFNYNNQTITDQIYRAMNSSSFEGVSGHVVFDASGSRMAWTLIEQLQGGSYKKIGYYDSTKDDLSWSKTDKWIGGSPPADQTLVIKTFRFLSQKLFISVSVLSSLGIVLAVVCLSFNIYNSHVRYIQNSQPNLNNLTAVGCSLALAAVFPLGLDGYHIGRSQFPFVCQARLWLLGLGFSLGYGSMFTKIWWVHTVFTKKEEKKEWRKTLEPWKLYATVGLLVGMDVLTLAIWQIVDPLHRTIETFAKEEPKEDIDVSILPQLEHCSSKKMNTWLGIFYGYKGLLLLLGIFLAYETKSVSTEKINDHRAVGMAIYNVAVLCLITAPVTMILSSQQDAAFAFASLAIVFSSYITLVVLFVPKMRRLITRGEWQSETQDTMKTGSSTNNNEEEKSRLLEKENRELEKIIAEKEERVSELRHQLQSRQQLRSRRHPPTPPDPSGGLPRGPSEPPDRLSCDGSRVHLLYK
# GABA-B receptor, sequence (O88871 41-940): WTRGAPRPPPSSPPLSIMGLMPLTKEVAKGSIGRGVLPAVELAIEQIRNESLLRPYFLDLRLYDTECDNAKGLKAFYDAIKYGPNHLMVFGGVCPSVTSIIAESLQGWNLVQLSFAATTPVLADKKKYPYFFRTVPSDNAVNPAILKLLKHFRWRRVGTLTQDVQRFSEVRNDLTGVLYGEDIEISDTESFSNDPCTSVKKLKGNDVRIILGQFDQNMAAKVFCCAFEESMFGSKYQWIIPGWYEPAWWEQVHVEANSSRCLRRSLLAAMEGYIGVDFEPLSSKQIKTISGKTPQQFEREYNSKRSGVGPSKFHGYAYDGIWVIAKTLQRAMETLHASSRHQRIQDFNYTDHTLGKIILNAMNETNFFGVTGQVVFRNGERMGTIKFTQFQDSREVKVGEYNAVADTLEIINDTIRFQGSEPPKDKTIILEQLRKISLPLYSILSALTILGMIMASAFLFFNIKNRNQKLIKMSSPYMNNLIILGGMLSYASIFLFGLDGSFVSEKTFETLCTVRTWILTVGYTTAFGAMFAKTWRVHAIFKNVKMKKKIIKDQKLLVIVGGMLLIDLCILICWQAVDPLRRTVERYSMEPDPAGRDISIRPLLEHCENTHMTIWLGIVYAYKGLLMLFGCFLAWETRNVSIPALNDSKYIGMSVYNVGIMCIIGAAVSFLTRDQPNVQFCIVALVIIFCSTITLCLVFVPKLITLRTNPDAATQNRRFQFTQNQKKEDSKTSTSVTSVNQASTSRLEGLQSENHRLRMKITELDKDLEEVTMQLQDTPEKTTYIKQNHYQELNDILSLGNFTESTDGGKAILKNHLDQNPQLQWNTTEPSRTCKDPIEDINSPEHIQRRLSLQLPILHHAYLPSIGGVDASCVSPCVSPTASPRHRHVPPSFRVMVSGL
row,SMILES,EC50 [nM]
1,"Cc1cc(N[C@H]2C[C@@H](O)C2)n2nc(C(C)c3ccc(Cl)cc3)cc2n1 (relative stereo) [Example 2-18, cis-3-({2-[1-(4-chlorophenyl)ethyl]-5-methylpyrazolo[1,5-a]pyrimidin-7-yl}amino)cyclobutanol]",499
2,"Cc1cc(N2CCC3(CC2)COC3)n2nc(C(C)c3ccc(Cl)cc3)cc2n1 (centres unmarked) [Example 2-9, 2-[1-(4-chlorophenyl)ethyl]-5-methyl-7-(2-oxa-7-azaspiro[3.5]non-7-yl)pyrazolo[1,5-a]pyrimidine]",604
3,"CC[C@@H]1CN(c2cc(C)nc3cc(C(C)c4ccc(Cl)cc4)nn23)[C@H]1C(=O)O (stereo partly drawn) [Example 2-15, (2R,3R)-1-{2-[1-(4-chlorophenyl)ethyl]-5-methylpyrazolo[1,5-a]pyrimidin-7-yl}-3-ethylazetidine-2-carboxylic acid]",3930
4,"Cc1cc(N2CCCCC2)n2nc(Cc3ccc(Cl)cc3)cc2n1 [Example 1-9, 2-(4-chlorobenzyl)-5-methyl-7-(piperidin-1-yl)pyrazolo[1,5-a]pyrimidine]",2570
5,"Cc1cc(N2CCC[C@@H](O)C2)n2nc(C(C)c3ccc(Cl)cc3)cc2n1 (stereo partly drawn) [Example 2-11, (3R)-1-{2-[1-(4-chlorophenyl)ethyl]-5-methylpyrazolo[1,5-a]pyrimidin-7-yl}piperidin-3-ol]",57
6,"Cc1cc(N2CCC2)n2nc(Cc3ccc(Cl)cc3)cc2n1 [Example 1-13, 7-(azetidin-1-yl)-2-(4-chlorobenzyl)-5-methylpyrazolo[1,5-a]pyrimidine]",> 10000
7,"Cc1cc(N2CCC[C@H](O)C2)n2nc(Cc3ccc(Cl)cc3)cc2n1 [Example 1-6, (3S)-1-[2-(4-chlorobenzyl)-5-methylpyrazolo[1,5-a]pyrimidin-7-yl]piperidin-3-ol]",974
8,"Cc1cc(NC2CC(F)(F)C2)n2nc(C(C)c3ccc(Cl)cc3)cc2n1 (centres unmarked) [Example 2-21, 2-(1-(4-chlorophenyl)ethyl)-N-(3,3-difluorocyclobutyl)-5-methylpyrazolo[1,5-a]pyrimidin-7-amine]",394
9,"Cc1cc(N2CC3(CCOCC3)C2)n2nc(C(C)c3ccc(Cl)cc3)cc2n1 (centres unmarked) [Example 2-13, 2-[1-(4-chlorophenyl)ethyl]-5-methyl-7-(7-oxa-2-azaspiro[3.5]non-2-yl)pyrazolo[1,5-a]pyrimidine]",446
10,"Cc1cc(NC2(C)CC2)n2nc(C(C)c3ccc(Cl)cc3)cc2n1 (centres unmarked) [Example 2-2, 2-[1-(4-chlorophenyl)ethyl]-5-methyl-N-(1-methylcyclopropyl)pyrazolo[1,5-a]pyrimidin-7-amine]",435
11,"Cc1cc(N2CCC[C@@H](O)C2)n2nc(Cc3ccc(Cl)cc3)cc2n1 [Example 1-7, (3R)-1-[2-(4-chlorobenzyl)-5-methylpyrazolo[1,5-a]pyrimidin-7-yl]piperidin-3-ol]",1230
12,"CC[C@@H]1CCCCN1c1cc(C)nc2cc(C(C)c3ccc(Cl)cc3)nn12 (stereo partly drawn) [Example 2-22, 2-[1-(4-chlorophenyl)ethyl]-7-[(2R)-2-ethylpiperidin-1-yl]-5-methylpyrazolo[1,5-a]pyrimidine]",70
13,"Cc1cc(N2CCC3(CCC3O)C2)n2nc(C(C)c3ccc(Cl)cc3)cc2n1 (centres unmarked) [Example 2-20, 6-{2-[1-(4-chlorophenyl)ethyl]-5-methylpyrazolo[1,5-a]pyrimidin-7-yl}-6-azaspiro[3.4]octan-1-ol]",93
14,"Cc1cc(NCC(F)(F)F)n2nc(Cc3ccc(Cl)cc3)cc2n1 [Example 1-16, 2-(4-chlorobenzyl)-5-methyl-N-(2,2,2-trifluoroethyl)pyrazolo[1,5-a]pyrimidin-7-amine]",> 10000
15,"Cc1cc(N2CCC(O)C(F)(F)C2)n2nc(Cc3ccc(Cl)cc3)cc2n1 (centres unmarked) [Example 1-5, 1-[2-(4-chlorobenzyl)-5-methylpyrazolo[1,5-a]pyrimidin-7-yl]-3,3-difluoropiperidin-4-ol]",5930
16,"CC(=O)N[C@@H]1CCN(c2cc(C)nc3cc(Cc4ccc(Cl)cc4)nn23)C1 [Example 1-11, N-{(3R)-1-[2-(4-chlorobenzyl)-5-methylpyrazolo[1,5-a]pyrimidin-7-yl]pyrrolidin-3-yl}acetamide]",> 10000
17,"Cc1cc(N2CCC(F)(F)C2)n2nc(C(C)c3ccc(Cl)cc3)cc2n1 (centres unmarked) [Example 2-3, 2-[1-(4-chlorophenyl)ethyl]-7-(3,3-difluoropyrrolidin-1-yl)-5-methylpyrazolo[1,5-a]pyrimidine]",508
18,"CC(=O)N[C@H]1CCN(c2cc(C)nc3cc(C(C)c4ccc(Cl)cc4)nn23)C1 (stereo partly drawn) [Example 2-17, N-[(3S)-1-{2-[1-(4-chlorophenyl)ethyl]-5-methylpyrazolo[1,5-a]pyrimidin-7-yl}pyrrolidin-3-yl]acetamide]",2180
19,"Cc1cc(N2CCC[C@@H](CO)C2)n2nc(Cc3ccc(Cl)cc3)cc2n1 [Example 1-21, {(3R)-1-[2-(4-chlorobenzyl)-5-methylpyrazolo[1,5-a]pyrimidin-7-yl]piperidin-3-yl}methanol]",1380

# Further lines, results first:
row,EC50 [nM],SMILES
1,378,"Cc1cc(N2CCC(F)CC2)n2nc(C(C)c3ccc(C(F)(F)F)cc3)cc2n1 (centres unmarked) [Example 8-11, 7-(4-fluoropiperidin-1-yl)-5-methyl-2-{1-[4-(trifluoromethyl)phenyl]ethyl}pyrazolo[1,5-a]pyrimidine]"
2,> 10000,"CC(=O)N[C@@H]1CCN(c2cc(C)nc3cc(C(C)c4ccc(Cl)cn4)nn23)C1 (stereo partly drawn) [Example 9-10, N-[(3R)-1-{2-[1-(5-chloropyridin-2-yl)ethyl]-5-methylpyrazolo[1,5-a]pyrimidin-7-yl}pyrrolidin-3-yl]acetamide]"
3,365,"Cc1cc(N2CCC[C@@H](O)C2)n2nc(C(C)c3ccc(C(F)(F)F)cc3)cc2n1 (stereo partly drawn) [Example 8-5, (3R)-1-(5-methyl-2-{1-[4-(trifluoromethyl)phenyl]ethyl}pyrazolo[1,5-a]pyrimidin-7-yl)piperidin-3-ol]"
4,500,"Cc1cc(NC2CC(F)(F)C2)n2nc(C(C)c3ccc(C(F)(F)F)cc3)cc2n1 (centres unmarked) [Example 8-20, N-(3,3-difluorocyclobutyl)-5-methyl-2-{1-[4-(trifluoromethyl)phenyl]ethyl}pyrazolo[1,5-a]pyrimidin-7-amine]"
5,771,"Cc1cc(N2CCC(C(N)=O)C2)n2nc(C(C)c3ccc(C(F)(F)F)cc3)cc2n1 (centres unmarked) [Example 8-22, 1-(5-methyl-2-{1-[4-(trifluoromethyl)phenyl]ethyl}pyrazolo[1,5-a]pyrimidin-7-yl)pyrrolidine-3-carboxamide]"
6,746,"Cc1cc(NC2(C)CC2)n2nc(C(C)c3ccc(C(F)(F)F)cc3)cc2n1 (centres unmarked) [Example 8-8, 5-methyl-N-(1-methylcyclopropyl)-2-{1-[4-(trifluoromethyl)phenyl]ethyl}pyrazolo[1,5-a]pyrimidin-7-amine]"
7,370,"Cc1cc(N2CCCC(F)C2)n2nc(C(C)c3ccc(C(F)(F)F)cc3)cc2n1 (centres unmarked) [Example 8-12, 7-(3-fluoropiperidin-1-yl)-5-methyl-2-{1-[4-(trifluoromethyl)phenyl]ethyl}pyrazolo[1,5-a]pyrimidine]"
8,570,"Cc1cc(N2CCC(F)(F)C2)n2nc(C(C)c3ccc(C(F)(F)F)cc3)cc2n1 (centres unmarked) [Example 8-15, 7-(3,3-difluoropyrrolidin-1-yl)-5-methyl-2-{1-[4-(trifluoromethyl)phenyl]ethyl}pyrazolo[1,5-a]pyrimidine]"
9,1600,"Cc1cc(NC2CC(F)(F)C2)n2nc(C(C)c3ccc(Cl)cn3)cc2n1 (centres unmarked) [Example 9-2, 2-[1-(5-chloropyridin-2-yl)ethyl]-N-(3,3-difluorocyclobutyl)-5-methylpyrazolo[1,5-a]pyrimidin-7-amine]"
10,3510,Cc1cc(N2CCC[C@H](NS(C)(=O)=O)C2)n2nc(Cc3ccc(Cl)cc3)cc2n1 [Example 11-1]
11,1320,"Cc1cc(NC2(C)CC2)n2nc(C(C)c3ccc(Cl)cn3)cc2n1 (centres unmarked) [Example 9-7, 2-[1-(5-chloropyridin-2-yl)ethyl]-5-methyl-N-(1-methylcyclopropyl)pyrazolo[1,5-a]pyrimidin-7-amine]"
12,> 10000,"Cc1cc(N2CC3(CCOCC3)C2)n2nc(C(C)c3ccc(Cl)cn3)cc2n1 (centres unmarked) [Example 9-9, 2-[1-(5-chloropyridin-2-yl)ethyl]-5-methyl-7-(7-oxa-2-azaspiro[3.5]non-2-yl)pyrazolo[1,5-a]pyrimidine]"
13,5,"Cc1cc(N2CCCCC2CCO)n2nc(C(c3ccc(Cl)cc3)C(C)C)cc2n1 (centres unmarked) [Example 4-1, 2-(1-{2-[1-(4-chlorophenyl)-2-methylpropyl]-5-methylpyrazolo[1,5-a]pyrimidin-7-yl}piperidin-2-yl)ethanol]"
